Test: WS12 leaching from lens into PBS packaging solution during autoclave (HPLC)
Type: physicochemical
Conditions: standard contact lens sterilization and storage conditions
Method: Silicone hydrogel contact lenses were prepared by curing the formulation for stenfilcon A in contact lens molds. The cured stenfilcon A was removed from the molds and extracted by immersing them for 215 minutes in ethanol (EtOH) containing WS12 (Tocris Bioscience) in the loading concentrations shown in Table I. The lenses were removed from the EtOH and washed in DI water for approximately 6 minutes, followed by two exchanges of DI water for approximately 30 minutes each. The lenses were transferred to 6 mL glass vials containing 3 mL phosphate buffered saline at pH 7.5 (0.78 wt. % NaCl, 0.05 wt. % sodium phosphate monobasic, and 0.36 wt. % sodium phosphate dibasic), referred to herein as PBS. The vials were sealed and autoclaved.
Each autoclaved lens was transferred to a vial containing 3 ml EtOH and stored overnight on a 150 rpm shaker at room temperature to extract WS12 from the lens. The EtOH extracts and the PBS in which the lenses were autoclaved were submitted for analysis by HPLC (detection wavelength=250 nm) against calibration standards to determine the average amount of WS12 loaded into each (n=5) and whether the WS12 leaches from the lens during autoclave.

With `COc1ccc(NC(=O)C2CC(C)CCC2C(C)C)cc1` (stereo not shown) [WS12, N-(4-Methoxyphenyl)-5-methyl-2-(1-methylethyl)cyclohexanecarboxamide] the “stability of WS12 in hydrogel lens material during sterilization and storage” value was “without degradation or leaching”.
